Where two headings read alike, the source gives them in different places. Blank lines part the entries; values can stand above or below the molecule they belong to.
Tests used:
[1] = test system: DU4475
[2] = test system: JH)S-4
[3] = test system: RMUGS*
[4] = test system: OAW42
[5] = test system: SKOV3
[6] = test system: A2780
[7] = test system: ES-2; test: In vitro combination study, ovarian cancer cell line ES-2; details: 4+3 model
[8] = test system: HCC1187; test: In vitro combination study, breast cancer cell line HCC1187; details: ER/PR −/−, HER2 −, 7 day pre-treatment + 6 day co-treatment
[9] = test system: COV644*; test: In vitro combination study, ovarian cancer cell line COV644; details: COV644*; 7+3 model
[10] = test system: MDA-MB-453; test: In vitro combination study, breast cancer cell line MDA-MB-453; format: cell-based; details: ER/PR −/−, HER2 −, 7 day pre-treatment + 6 day co-treatment
[11] = test system: SUM52PE; test: In vitro combination study, breast cancer cell line SUM52PE; details: ER/PR −/−, HER2 −, 7 day pre-treatment + 6 day co-treatment
[12] = test system: MDA-MB-175VII; test: In vitro combination study, breast cancer cell line MDA-MB-175VII; details: ER/PR +/+, HER2 +, 7 day pre-treatment + 6 day co-treatment
[13] = test system: OVMANA
[14] = test system: SUM159PT
[15] = test system: HCC1143
[16] = test system: COV434; details: 4+3 model
[17] = test system: OV-90; test: In vitro combination study, ovarian cancer cell line OV-90; details: OV-90; 4+3 model
[18] = test system: SKOV3; test: In vitro combination study, ovarian cancer cell line SKOV3; details: 4+3 model
[19] = test system: OVMANA; test: In vitro combination study, ovarian cancer cell line OVMANA; details: OVMANA; 4+3 model
[20] = test system: COV362; test: In vitro combination study, ovarian cancer cell line COV362; details: COV362; 4+3 model
[21] = test system: TOV112D; test: In vitro combination study, ovarian cancer cell line TOV112D; details: 4+3 model
[22] = test system: KURAMOCHI; test: In vitro combination study, ovarian cancer cell line KURAMOCHI; details: KURAMOCHI; 4+3 model
[23] = test system: MDA-MB-468
[24] = test system: HCC38
[25] = test system: OV-90
[26] = test system: TOV21G; test: In vitro combination study, ovarian cancer cell line TOV21G; format: cell-based; details: 4+3 model
[27] = test system: CAOV-3; test: In vitro combination study, ovarian cancer cell line CAOV-3; format: cell-based; details: 4+3 model
[28] = test system: COV504; details: COV504; 4+3 model
[29] = test system: A2780; test: In vitro combination study, ovarian cancer cell line A2780; details: A2780; 4+3 model
[30] = test system: HCC1143; test: In vitro combination study, breast cancer cell line HCC1143; details: ER/PR −/−, HER2 −, 7 day pre-treatment + 6 day co-treatment
[31] = test system: HCC1419; test: In vitro combination study, breast cancer cell line HCC1419; details: ER/PR −/−, HER2 +, 7 day pre-treatment + 6 day co-treatment
[32] = test system: BT-20; test: In vitro combination study, breast cancer cell line BT-20; details: ER/PR −/−, HER2 −, 7 day pre-treatment + 6 day co-treatment
[33] = test system: DU4475; test: In vitro combination study, breast cancer cell line DU4475; details: ER/PR −/−, HER2 −, 7 day pre-treatment + 6 day co-treatment
[34] = test system: OVISE; test: In vitro combination study, ovarian cancer cell line OVISE; details: OVISE; 4+3 model
[35] = test system: JH)S-4; test: In vitro combination study, ovarian cancer cell line JH)S-4; details: 4+3 model
[36] = test system: HCC1569
[37] = test system: MDA-MB-231; test: In vitro combination study, breast cancer cell line MDA-MB-231; details: ER/PR −/−, HER2 −, 7 day pre-treatment + 6 day co-treatment

Compound: COc1cccc2c1C(=O)c1c(O)c3c(c(O)c1C2=O)C[C@@](O)(C(=O)CO)C[C@@H]3O[C@H]1C[C@H](N)[C@H](O)[C@H](C)O1 [Doxorubicin]
- Synergy or antagonism of second agent with tazemetostat (IC50 shift of second agent) [13]: C (key: B: Synergy > 4× IC50 shift; Synergy > 2× IC50 shift; No Effect; Antagonism; X: Not Tested)
- Synergy or antagonism of second agent with tazemetostat (IC50 shift of second agent) [3]: B (key: B: Synergy > 4× IC50 shift; Synergy > 2× IC50 shift; No Effect; Antagonism; X: Not Tested)
- Synergy or antagonism of second agent with tazemetostat (IC50 shift of second agent) [5]: B (key: B: Synergy > 4× IC50 shift; Synergy > 2× IC50 shift; No Effect; Antagonism; X: Not Tested)
- Synergy or antagonism of second agent with tazemetostat (IC50 shift of second agent) [7]: C (Synergy > 2× IC50 shift)
- Synergy or antagonism of second agent with tazemetostat (IC50 shift of second agent) [9]: C (Synergy > 2× IC50 shift)

Compound: COc1cc([C@@H]2c3cc4c(cc3[C@@H](O[C@@H]3O[C@@H]5CO[C@@H](C)O[C@H]5[C@H](O)[C@H]3O)[C@H]3COC(=O)[C@H]23)OCO4)cc(OC)c1O [Etoposide]
- Synergy or antagonism of second agent with tazemetostat (IC50 shift of second agent) [14]: C (key: B: Synergy > 4× IC50 shift; Synergy > 2× IC50 shift; No Effect; Antagonism; X: Not Tested)
- Synergy or antagonism of second agent with tazemetostat (IC50 shift of second agent) [15]: C (key: B: Synergy > 4× IC50 shift; Synergy > 2× IC50 shift; No Effect; Antagonism; X: Not Tested)

Compound: Nc1ccccc1NC(=O)c1ccc(CNc2nccc(-c3cccnc3)n2)cc1 [Mocetinostat]
- Synergy or antagonism of second agent with tazemetostat (IC50 shift of second agent) [16]: C (Synergy > 2× IC50 shift)
- Synergy or antagonism of second agent with tazemetostat (IC50 shift of second agent) [17]: C (Synergy > 2× IC50 shift)
- Synergy or antagonism of second agent with tazemetostat (IC50 shift of second agent) [18]: B (Synergy > 4× IC50 shift)
- Synergy or antagonism of second agent with tazemetostat (IC50 shift of second agent) [19]: C (Synergy > 2× IC50 shift)
- Synergy or antagonism of second agent with tazemetostat (IC50 shift of second agent) [20]: C (Synergy > 2× IC50 shift)
- Synergy or antagonism of second agent with tazemetostat (IC50 shift of second agent) [21]: C (Synergy > 2× IC50 shift)
- Synergy or antagonism of second agent with tazemetostat (IC50 shift of second agent) [22]: C (Synergy > 2× IC50 shift)

Compound: Cc1sc2c(c1C)C(c1ccc(Cl)cc1)=N[C@@H](CC(=O)OC(C)(C)C)c1nnc(C)n1-2 [JQ1]
- Synergy or antagonism of second agent with tazemetostat (IC50 shift of second agent) [26]: C (Synergy > 2× IC50 shift)
- Synergy or antagonism of second agent with tazemetostat (IC50 shift of second agent) [27]: B (Synergy > 4× IC50 shift)
- Synergy or antagonism of second agent with tazemetostat (IC50 shift of second agent) [28]: C (Synergy > 2× IC50 shift)
- Synergy or antagonism of second agent with tazemetostat (IC50 shift of second agent) [7]: C (Synergy > 2× IC50 shift)
- Synergy or antagonism of second agent with tazemetostat (IC50 shift of second agent) [17]: C (Synergy > 2× IC50 shift)
- Synergy or antagonism of second agent with tazemetostat (IC50 shift of second agent) [18]: B (Synergy > 4× IC50 shift)
- Synergy or antagonism of second agent with tazemetostat (IC50 shift of second agent) [29]: B (Synergy > 4× IC50 shift)
- Synergy or antagonism of second agent with tazemetostat (IC50 shift of second agent) [30]: C (Synergy > 2× IC50 shift)
- Synergy or antagonism of second agent with tazemetostat (IC50 shift of second agent) [31]: C (Synergy > 2× IC50 shift)
- Synergy or antagonism of second agent with tazemetostat (IC50 shift of second agent) [21]: C (Synergy > 2× IC50 shift)

Compound: Nc1cc(C(F)(F)F)c(-c2cc(N3CCOCC3)nc(N3CCOCC3)n2)cn1 [BKM120]
- Synergy or antagonism of second agent with tazemetostat (IC50 shift of second agent) [28]: C (Synergy > 2× IC50 shift)
- Synergy or antagonism of second agent with tazemetostat (IC50 shift of second agent) [16]: C (Synergy > 2× IC50 shift)
- Synergy or antagonism of second agent with tazemetostat (IC50 shift of second agent) [32]: C (Synergy > 2× IC50 shift)
- Synergy or antagonism of second agent with tazemetostat (IC50 shift of second agent) [33]: A (Antagonism)
- Synergy or antagonism of second agent with tazemetostat (IC50 shift of second agent) [34]: C (Synergy > 2× IC50 shift)
- Synergy or antagonism of second agent with tazemetostat (IC50 shift of second agent) [18]: C (Synergy > 2× IC50 shift)
- Synergy or antagonism of second agent with tazemetostat (IC50 shift of second agent) [29]: C (Synergy > 2× IC50 shift)
- Synergy or antagonism of second agent with tazemetostat (IC50 shift of second agent) [31]: C (Synergy > 2× IC50 shift)
- Synergy or antagonism of second agent with tazemetostat (IC50 shift of second agent) [35]: C (Synergy > 2× IC50 shift)
- Synergy or antagonism of second agent with tazemetostat (IC50 shift of second agent) [9]: C (Synergy > 2× IC50 shift)
- Synergy or antagonism of second agent with tazemetostat (IC50 shift of second agent) [21]: C (Synergy > 2× IC50 shift)
- Synergy or antagonism of second agent with tazemetostat (IC50 shift of second agent) [22]: C (Synergy > 2× IC50 shift)

Compound: Cc1nc(Nc2ncc(C(=O)Nc3c(C)cccc3Cl)s2)cc(N2CCN(CCO)CC2)n1 [Dasatinib]
- Synergy or antagonism of second agent with tazemetostat (IC50 shift of second agent) [36]: C (key: B: Synergy > 4× IC50 shift; Synergy > 2× IC50 shift; No Effect; Antagonism; X: Not Tested)
- Synergy or antagonism of second agent with tazemetostat (IC50 shift of second agent) [11]: B (Synergy > 4× IC50 shift)
- Synergy or antagonism of second agent with tazemetostat (IC50 shift of second agent) [37]: C (Synergy > 2× IC50 shift)

Second part, led by results:

- Synergy or antagonism of second agent with tazemetostat (IC50 shift of second agent) [7]: C (Synergy > 2× IC50 shift)
- Synergy or antagonism of second agent with tazemetostat (IC50 shift of second agent) [8]: C (Synergy > 2× IC50 shift)
- Synergy or antagonism of second agent with tazemetostat (IC50 shift of second agent) [9]: C (Synergy > 2× IC50 shift)
Compound: CC(=O)O[C@H]1C(=O)[C@@]2(C)[C@H]([C@H](OC(=O)c3ccccc3)[C@]3(O)C[C@H](OC(=O)[C@H](O)[C@@H](NC(=O)c4ccccc4)c4ccccc4)C(C)=C1C3(C)C)[C@]1(OC(C)=O)CO[C@@H]1C[C@@H]2O [Paclitaxel]
- Synergy or antagonism of second agent with tazemetostat (IC50 shift of second agent) [1]: B (key: B: Synergy > 4× IC50 shift; Synergy > 2× IC50 shift; No Effect; Antagonism; X: Not Tested)
- Synergy or antagonism of second agent with tazemetostat (IC50 shift of second agent) [2]: C (key: B: Synergy > 4× IC50 shift; Synergy > 2× IC50 shift; No Effect; Antagonism; X: Not Tested)
- Synergy or antagonism of second agent with tazemetostat (IC50 shift of second agent) [3]: C (key: B: Synergy > 4× IC50 shift; Synergy > 2× IC50 shift; No Effect; Antagonism; X: Not Tested)
- Synergy or antagonism of second agent with tazemetostat (IC50 shift of second agent) [4]: B (key: B: Synergy > 4× IC50 shift; Synergy > 2× IC50 shift; No Effect; Antagonism; X: Not Tested)
- Synergy or antagonism of second agent with tazemetostat (IC50 shift of second agent) [5]: C (key: B: Synergy > 4× IC50 shift; Synergy > 2× IC50 shift; No Effect; Antagonism; X: Not Tested)
- Synergy or antagonism of second agent with tazemetostat (IC50 shift of second agent) [6]: C (key: B: Synergy > 4× IC50 shift; Synergy > 2× IC50 shift; No Effect; Antagonism; X: Not Tested)

- Synergy or antagonism of second agent with tazemetostat (IC50 shift of second agent) [10]: A (Antagonism)
- Synergy or antagonism of second agent with tazemetostat (IC50 shift of second agent) [11]: C (Synergy > 2× IC50 shift)
- Synergy or antagonism of second agent with tazemetostat (IC50 shift of second agent) [12]: C (Synergy > 2× IC50 shift)
Compound: Cc1cc(Nc2cc(N3CCN(C)CC3)nc(/C=C/c3ccccc3)n2)n[nH]1 [ENMD-2076]

- Synergy or antagonism of second agent with tazemetostat (IC50 shift of second agent) [11]: C (Synergy > 2× IC50 shift)
Compound: Nc1ncn([C@@H]2O[C@H](CO)[C@@H](O)[C@H]2O)c(=O)n1 [Azacitidine]
- Synergy or antagonism of second agent with tazemetostat (IC50 shift of second agent) [23]: C (key: B: Synergy > 4× IC50 shift; Synergy > 2× IC50 shift; No Effect; Antagonism; X: Not Tested)
- Synergy or antagonism of second agent with tazemetostat (IC50 shift of second agent) [24]: C (key: B: Synergy > 4× IC50 shift; Synergy > 2× IC50 shift; No Effect; Antagonism; X: Not Tested)
- Synergy or antagonism of second agent with tazemetostat (IC50 shift of second agent) [1]: C (key: B: Synergy > 4× IC50 shift; Synergy > 2× IC50 shift; No Effect; Antagonism; X: Not Tested)
- Synergy or antagonism of second agent with tazemetostat (IC50 shift of second agent) [25]: C (key: B: Synergy > 4× IC50 shift; Synergy > 2× IC50 shift; No Effect; Antagonism; X: Not Tested)
